According to patent US20020035131A1, “Regimen and kit for amelioration of premature ejaculation” (Pentech Pharmaceuticals, Inc., priority 1999, published 2002):
“And” between values parts separate entries of the source, which are not always exact repeats. Equal values may be shown once.

Key:
[1] = test system: normally potent male patients suffering from premature ejaculation; assay: Example 1: incidence of adverse effects; type: in vivo, human
Excerpt: All patients in the study group were heterosexual, had no other sexual disorders and were either married or in a stable relationship. The baseline pre-treatment ELT for the group, determined as the mean of measurements from a minimum of two acts of sexual intercourse was 2.2 (range 2-3) as reported by patients prior to commencement of the study using a stop watch operated by the patients.
Each patient was supplied with an ejaculation diary and instructed to record their frequency of coitus, quality of erection and orgasm, and to measure and record their ejaculatory latency time using a stop-watch. The patients were required to attempt coitus on at least two occasions each week.

[2] = test system: normally potent male patients suffering from premature ejaculation; assay: Example 2 Study Group 1: single blind cross-over, continual maintenance paroxetine vs placebo (ELT, coitus frequency); type: in vivo, human
Excerpt: All patients in the study group were heterosexual, had no other sexual disorders and were either married or in a stable relationship. Patients with erectile dysfunction, reduced sexual desire, inhibited male orgasm, chronic depressive, psychiatric or physical illness, alcohol or substance abuse and the use of psychotropic and anti-depressant medication were excluded from the trial. Study Group 1 was comprised of 26 patients who were randomized into two treatment groups, Group A and Group B. […] Group B received placebo similarly administered about 3-4 hours before sexual intercourse. Patients were reviewed every two weeks. Cross-over was then conducted in both groups after four weeks of treatment, following an intervening three week drug free “washout” period, for a further four weeks of treatment. None of the patients received any formal psychosexual counseling. Patients were supplied with a diary and were asked to record their frequency of coitus, quality of erection and orgasm. Patients were asked to measure their ELT using a stopwatch. Pre-treatment mean ELT was measured over a three week baseline period during which patients were asked to have sexual intercourse at least three times. Pre-treatment frequency of coitus was the mean number of attempts in the previous three months. Patients were asked not to use condoms or topical penile anaesthetic creams or sprays. The frequency data of coitus and ejaculatory latency time (ELT) during the paroxetine and placebo treatment phases were statistically compared (Student's t-test).

[3] = test system: normally potent male patients suffering from premature ejaculation; assay: Example 2 Study Group 2: single blind cross-over, daily paroxetine then continual maintenance vs placebo (ELT, coitus frequency); type: in vivo, human
[4] = test system: normally potent male patients suffering from premature ejaculation; assay: Example 2: incidence of adverse effects; type: in vivo, human
[5] = test system: healthy men with a diagnosis of premature ejaculation (PE); assay: Example 4: double-blind, randomized, parallel safety and efficacy study, 6, 9 and 12 mg capsules; type: in vivo, human; conditions: for Time to Ejaculate, Mean Time (minutes), Reported By Partner / Time to Ejaculate, Range (minutes), Reported By Partner / Time to Ejaculate, Mean Time (minutes), Reported By Patient / Time to Ejaculate, Range (minutes), Reported By Patient: after 6 weeks treatment, baseline latency ≦ 2 minutes, preliminary data; for Time to Ejaculate, Mean Time (minutes), Reported By Partner / Time to Ejaculate, Range (minutes), Reported By Partner: n 23; for Reason for Early Termination: AE (Adverse Experience), patients: 6, 9 and 12 mg capsules combined
Description: A double-blind, randomized, parallel safety and efficacy study was conducted at six clinical sites, A-F. […] The study consisted of a screening period, baseline period, and two treatment periods. The patients who completed the study participated for about nine weeks. The patients selected were healthy men between the ages of 21 and 65 years with a diagnosis of premature ejaculation (PE). Patients who met the selection criteria provided a medical history and submitted to psychosexual and physical examinations at screening. The efficacy of the paroxetine capsules was assessed at each visit. Safety was assessed by physical examinations and adverse experience (AE) reports, if any, were collected throughout the study. A post-treatment physical assessment was performed at the final visit. Qualified patients who were admitted to this study were assigned an identification number in sequential order by enrollment. […] There were a total of about eighteen patients per dose/per site. […] The capsule was to be taken one hour after breakfast or within two hours of awakening.

[6] = cited from earlier work
dopamine receptors = conditions: unlike sertraline; cited from earlier work
[7] = Group A-Phase 1: 20 mg acute daily dosing
[8] = Group A-Phase 1: 20 mg acute daily dosing, 61 patients
[9] = Study Group 1-A, week 1: continual maintenance paroxetine 20 mg 3-4 hours before intercourse
[10] = Study Group 1-A, week 2: continual maintenance paroxetine 20 mg 3-4 hours before intercourse
[11] = Study Group 1-A, week 3: continual maintenance paroxetine 20 mg 3-4 hours before intercourse
[12] = Study Group 1-A, week 4: continual maintenance paroxetine 20 mg 3-4 hours before intercourse
[13] = Study Group 1-B, week 8: first week of continual maintenance paroxetine 20 mg after placebo and washout
[14] = Study Group 1-B, week 9: second week of continual maintenance paroxetine 20 mg after placebo and washout
[15] = Study Group 1-B, week 10: third week of continual maintenance paroxetine 20 mg after placebo and washout
[16] = Study Group 1-B, week 11: fourth week of continual maintenance paroxetine 20 mg after placebo and washout
[17] = Study Group 2-C, week 1: paroxetine 10 mg daily
[18] = Study Group 2-C, week 2: paroxetine 10 mg daily
[19] = Study Group 2-C, week 3: paroxetine 10 mg daily
[20] = Study Group 2-C, week 4: paroxetine 20 mg continual maintenance after three weeks 10 mg daily
[21] = Study Group 2-C, week 5: paroxetine 20 mg continual maintenance after three weeks 10 mg daily
[22] = Study Group 2-C, week 6: paroxetine 20 mg continual maintenance after three weeks 10 mg daily
[23] = Study Group 2-C, week 7: paroxetine 20 mg continual maintenance after three weeks 10 mg daily
[24] = Study Group 2-D, week 11: paroxetine 10 mg daily, first week after placebo phases and washout
[25] = Study Group 2-D, week 12: paroxetine 10 mg daily, second week after placebo phases and washout
[26] = Study Group 2-D, week 13: paroxetine 10 mg daily, third week after placebo phases and washout
[27] = Study Group 2-D, week 14: paroxetine 20 mg continual maintenance after three weeks 10 mg daily
[28] = Study Group 2-D, week 15: paroxetine 20 mg continual maintenance after three weeks 10 mg daily
[29] = Study Group 2-D, week 16: paroxetine 20 mg continual maintenance after three weeks 10 mg daily
[30] = Study Group 2-D, week 17: paroxetine 20 mg continual maintenance after three weeks 10 mg daily
[31] = Study Group 2, Daily Paroxetine (10 mg)
[32] = Study Group 2, Daily Paroxetine (10 mg), 42 patients
[33] = Study Group 2, Daily Paroxetine (10 mg), 42 patients, listed as Paroxetine

Structure (SMILES): Fc1ccc([C@@H]2CCNC[C@H]2COc2ccc3c(c2)OCO3)cc1 (relative stereo) [paroxetine, trans-(−)-3-(1,3-benzodioxol-5-yloxy)methyl-4-(4-fluorophenyl) piperidine]
- Adverse effects: Total Patients (fraction) [1, 7]: 12/61
- Adverse effects: Total Patients (percent) [1, 7]: 20%
- Adverse Effect: Drowsiness (patients) [1, 8]: 1
- Adverse Effect: Inhibited orgasm (patients) [1, 8]: 3
- Adverse effect: Anejaculation (patients) [1, 8]: 5
- Adverse effect: Anorexia (patients) [1, 8]: 1
- Adverse effect: Gastrointestinal upset (patients) [1, 8]: 2
- Adverse effect: Reduced Libido (patients) [1, 8]: 3
- patients with inhibition of orgasm despite achieving ejaculation (percent) ([1]; Group A-Phase 1: acute treatment with 20 mg paroxetine/day, 3/61): 5%
- patients with anejaculation (percent) ([1]; Group A-Phase 1: acute treatment with 20 mg paroxetine/day, 5/61): 8%
- Adverse effects: Total Patients (fraction) ([1]; Group A-Phase 2: 20 mg continual maintenance after conversion): None and 0/53
- Adverse effects: Total Patients (fraction) ([1]; Group B: 20 mg continual maintenance only): None and 0/33
- Erectile dysfunction ([1]; all patients of Example 1): not reported by any of the patients
- patients with anejaculation achieving ejaculation with a reduced dose ([1]; anejaculation on 20 mg/day, reduced dose of 5 mg (n=3) and 10 mg (n=1)): 4/5
- Coitus Frequency/wk [2, 9]: 1.1 /wk
- Ejaculatory Latency Time [2, 9]: 1.0 min
- Coitus Frequency/wk [2, 10]: 1.4 /wk
- Ejaculatory Latency Time [2, 10]: 3.0 min
- Coitus Frequency/wk [2, 11]: 2.3 /wk
- Ejaculatory Latency Time [2, 11]: 2.9 min
- Coitus Frequency/wk [2, 12]: 3.2 /wk
- Ejaculatory Latency Time [2, 12]: 3.2 min
- Coitus Frequency/wk [2, 13]: 0.6 /wk
- Ejaculatory Latency Time [2, 13]: 1.3 min
- Coitus Frequency/wk [2, 14]: 1.9 /wk
- Ejaculatory Latency Time [2, 14]: 2.8 min
- Coitus Frequency/wk [2, 15]: 3.5 /wk
- Ejaculatory Latency Time [2, 15]: 3.5 min
- Coitus Frequency/wk [2, 16]: 3.1 /wk
- Ejaculatory Latency Time [2, 16]: 3.5 min
- time to prolongation of the ejaculatory interval (ELT) ([2]; Study Group 1: continual maintenance paroxetine): 1-2 weeks
- patients achieving intra-vaginal ejaculation for the first time ([2]; Study Group 1, patients who had never previously achieved it, after two weeks of treatment): one of three
- Coitus Frequency/wk [3, 17]: 1.7 /wk
- Ejaculatory Latency Time [3, 17]: 1.2 min
- Coitus Frequency/wk [3, 18]: 1.9 /wk
- Ejaculatory Latency Time [3, 18]: 1.8 min
- Coitus Frequency/wk [3, 19]: 2.7 /wk
- Ejaculatory Latency Time [3, 19]: 4.3 min
- Coitus Frequency/wk [3, 20]: 2.3 /wk
- Ejaculatory Latency Time [3, 20]: 4.5 min
- Coitus Frequency/wk [3, 21]: 2.0 /wk
- Ejaculatory Latency Time [3, 21]: 5.2 min
- Coitus Frequency/wk [3, 22]: 2.9 /wk
- Ejaculatory Latency Time [3, 22]: 4.7 min
- Coitus Frequency/wk [3, 23]: 2.4 /wk
- Ejaculatory Latency Time [3, 23]: 5.8 min
- Coitus Frequency/wk [3, 24]: 2.0 /wk
- Ejaculatory Latency Time [3, 24]: 2.2 min
- Coitus Frequency/wk [3, 25]: 2.2 /wk
- Ejaculatory Latency Time [3, 25]: 3.5 min
- Coitus Frequency/wk [3, 26]: 3.1 /wk
- Ejaculatory Latency Time [3, 26]: 3.3 min
- Coitus Frequency/wk [3, 27]: 3.0 /wk
- Ejaculatory Latency Time [3, 27]: 4.2 min
- Coitus Frequency/wk [3, 28]: 2.6 /wk
- Ejaculatory Latency Time [3, 28]: 3.9 min
- Coitus Frequency/wk [3, 29]: 2.5 /wk
- Ejaculatory Latency Time [3, 29]: 4.6 min
- Coitus Frequency/wk [3, 30]: 2.7 /wk
- Ejaculatory Latency Time [3, 30]: 6.1 min
- patients achieving intra-vaginal ejaculation for the first time ([3]; Study Group 2, patients who had never previously achieved it, after two weeks of treatment): all of the five
- patients reporting any adverse effects ([4]; Study Group 1, continual maintenance use of paroxetine (20 mg)): None
- Adverse effects: Total Patients (fraction) [4, 31]: 7/42
- Adverse effects: Total Patients (percent) [4, 31]: 17%
- Adverse effect: Anejaculation (patients) [4, 32]: Three
- Adverse effect: Anorexia (patients) [4, 32]: 1
- Adverse effect: Gastrointestinal upset (patients) [4, 32]: 3
- Adverse effect: Reduced Libido (patients) [4, 32]: Two
- Adverse effect: Anejaculation (patients) [4, 33]: 3
- Adverse effect: Reduced Libido (patients) [4, 33]: 2
- return of ejaculation after withdrawal of the drug ([4]; Study Group 2, patients with anejaculation on daily paroxetine): 2 to 10 days
- Time to Ejaculate, Mean Time (minutes), Reported By Partner ([5]; 6 mg capsule daily): 2.6 min
- Time to Ejaculate, Range (minutes), Reported By Partner ([5]; 6 mg capsule daily): 0.4 to 15 min
- Time to Ejaculate, Mean Time (minutes), Reported By Patient ([5]; 6 mg capsule daily, n 25): 2.4 min
- Time to Ejaculate, Range (minutes), Reported By Patient ([5]; 6 mg capsule daily, n 25): 0.03 to 16 min
- Time to Ejaculate, Mean Time (minutes), Reported By Partner ([5]; 9 mg capsule daily): 2.3 min
- Time to Ejaculate, Range (minutes), Reported By Partner ([5]; 9 mg capsule daily): 0.03 to 10 min
- Time to Ejaculate, Mean Time (minutes), Reported By Patient ([5]; 9 mg capsule daily, n 25): 2.4 min
- Time to Ejaculate, Range (minutes), Reported By Patient ([5]; 9 mg capsule daily, n 25): 0.03 to 12.5 min
- Time to Ejaculate, Mean Time (minutes), Reported By Partner ([5]; 12 mg capsule daily): 3.5 min
- Time to Ejaculate, Range (minutes), Reported By Partner ([5]; 12 mg capsule daily): 0.12 to 30 min
- Time to Ejaculate, Mean Time (minutes), Reported By Patient ([5]; 12 mg capsule daily, n 24): 2.4 min
- Time to Ejaculate, Range (minutes), Reported By Patient ([5]; 12 mg capsule daily, n 24): 0.25 to 10 min
- Reason for Early Termination: AE (Adverse Experience), patients ([5]; Clinical Site A, 10 enrolled): 0
- Reason for Early Termination: AE (Adverse Experience), patients ([5]; Clinical Site B, 16 enrolled): 3
- Reason for Early Termination: AE (Adverse Experience), patients ([5]; Clinical Site C, 34 enrolled): 1
- Reason for Early Termination: AE (Adverse Experience), patients ([5]; Clinical Site D, 6 enrolled): 1
- Reason for Early Termination: AE (Adverse Experience), patients ([5]; Clinical Site E, 22 enrolled): 1
- Reason for Early Termination: AE (Adverse Experience), patients ([5]; Clinical Site F, 19 enrolled): 2
- Reason for Early Termination: AE (Adverse Experience), patients ([5]; TOTALS of sites A-F, 107 enrolled): 8
- time to steady state systemic levels ([6]; occurring after about): 7 to 14 days
- half life ([6]; reportedly): 24 h
- time to peak plasma levels ([6]; usually achieved within about): 2 to 8 h
- affinity for dopamine receptors (dopamine receptors): little affinity
